What was measured:
Assay type in all cases: biochemical
Urokinase (Abbokinase) = target: T1, Urokinase (Abbokinase) (Homo sapiens, UniProt P00749); experiment: Urokinase assay, chromogenic substrate S-2444; conditions: Ki calculated using the IC50 value; 30 minute incubation, HBSA buffer; read-out: Ki uPA
T1 construct: purchased Abbott Laboratories (manufacturer), obtained from Priority Pharmaceuticals
Procedure: (§1) The ability of compounds of the present invention to act as selective inhibitors of urokinase catalytic activity was assessed by determining the concentration of test compound which inhibited the activity of this enzyme by 50%, (IC50), and comparing this value to that determined for all or some of the following related serine proteases: recombinant tissue plasminogen activator (rt-PA), plasmin, activated protein C, chymotrypsin, factor Xa, thrombin and trypsin.
(§2) The buffer used for all assays was HBSA (10 mM HEPES, pH 7.5, 150 mM sodium chloride, 0.1% bovine serum albumin).
(§3) The assay for IC50 determinations was conducted by combining in appropriate wells of a Corning microtiter plate, 50 microliters of HBSA, 50 microliters of the test compound at a specified concentration (covering a broad concentration range) diluted in HBSA (or HBSA alone for VO (uninhibited velocity) measurement), and 50 microliters of the enzyme diluted in HESA. Following a 30 minute incubation at ambient temperature, 50 microliters of the substrate at the concentrations specified below were added to the wells, yielding a final total volume of 200 microliters (about 4 times Km). The initial velocity of chromogenic substrate hydrolysis was measured by the change in absorbance at 405 nm using a Thermo Max® Kinetic Microplate Reader over a 5 minute period in which less than 5% of the added substrate was utilized. The concentration of added inhibitor which caused a 50% decrease in the initial rate of hydrolysis was defined as the IC50 value. Ki may be calculated from the IC50 value.
Urokinase catalytic activity was determined using the chromogenic substrate […] S-2444 (L-Pyroglutamyl-glycyl-L-arginine-p-nitroaniline hydrochloride), obtained from DiaPharma Group, Inc. Urokinase (Abbokinase), manufactured by Abbott Laboratories, was obtained from Priority Pharmaceuticals and diluted to 750 pM in the HBSA assay buffer prior to use. The assay buffer was HBS (10 mM HEPES, 150 mM sodium chloride pH 7.4) with 0.1% BSA. Ki was calculated using the IC50 value.

Human rt-PA (Activase) = target: T2, Human rt-PA (Activase) (Homo sapiens, UniProt P00750); experiment: Recombinant tissue plasminogen activator (rt-PA) assay, chromogenic substrate Pefachrome t-PA; conditions: 30 minute incubation, HBSA buffer, rt-PA 1.0 nM
T2 construct: purchased Genentech Inc
T2 sequence (P00750 36-562): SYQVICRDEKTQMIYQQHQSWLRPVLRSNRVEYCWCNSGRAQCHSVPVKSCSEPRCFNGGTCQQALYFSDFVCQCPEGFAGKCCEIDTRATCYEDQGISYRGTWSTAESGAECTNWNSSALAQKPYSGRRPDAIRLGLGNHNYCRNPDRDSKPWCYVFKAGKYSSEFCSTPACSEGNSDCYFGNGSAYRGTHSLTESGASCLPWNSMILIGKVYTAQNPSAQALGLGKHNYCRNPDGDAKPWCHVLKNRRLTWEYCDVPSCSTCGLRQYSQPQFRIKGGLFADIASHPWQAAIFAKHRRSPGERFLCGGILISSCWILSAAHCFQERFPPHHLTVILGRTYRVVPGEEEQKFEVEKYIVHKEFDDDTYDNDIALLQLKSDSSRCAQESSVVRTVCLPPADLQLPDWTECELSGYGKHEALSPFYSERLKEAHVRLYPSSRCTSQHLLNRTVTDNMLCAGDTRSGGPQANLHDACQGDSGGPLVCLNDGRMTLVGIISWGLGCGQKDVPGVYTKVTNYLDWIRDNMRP
Procedure: as §1, §2, §3
rt-PA catalytic activity was determined using the substrate, Pefachrome t-PA (CH3SO2-D-hexahydrotyrosine-glycyl-L-arginine-p-nitroaniline, obtained from Pentapharm Ltd.). The substrate was made up in deionized water followed by dilution in HBSA prior to the assay in which the final concentration was 500 micromolar (about 3-times Km). Human rt-PA (Activase®) was obtained from Genentech Inc. The enzyme was reconstituted in deionized water and diluted into HBSA prior to the assay in which the final concentration was 1.0 nM.

human plasmin = target: T3, human plasmin (Homo sapiens, UniProt P00747); experiment: Plasmin assay, chromogenic substrate S-2366; conditions: 30 minute incubation, HBSA buffer, plasmin 1.0 nM
T3 construct: Purified human plasmin was obtained from Enzyme Research Laboratories, Inc; purchased Enzyme Research Laboratories, Inc
T3 sequence (P00747 581-810 limits assumed): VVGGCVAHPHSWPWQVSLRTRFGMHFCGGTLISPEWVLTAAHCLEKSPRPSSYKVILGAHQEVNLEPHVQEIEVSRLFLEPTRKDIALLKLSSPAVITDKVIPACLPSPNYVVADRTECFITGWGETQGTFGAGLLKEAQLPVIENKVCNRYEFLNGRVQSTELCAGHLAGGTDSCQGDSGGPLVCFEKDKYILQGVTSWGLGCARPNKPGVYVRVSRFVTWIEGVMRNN
T3 sequence (P00747 97-580 partner limits assumed): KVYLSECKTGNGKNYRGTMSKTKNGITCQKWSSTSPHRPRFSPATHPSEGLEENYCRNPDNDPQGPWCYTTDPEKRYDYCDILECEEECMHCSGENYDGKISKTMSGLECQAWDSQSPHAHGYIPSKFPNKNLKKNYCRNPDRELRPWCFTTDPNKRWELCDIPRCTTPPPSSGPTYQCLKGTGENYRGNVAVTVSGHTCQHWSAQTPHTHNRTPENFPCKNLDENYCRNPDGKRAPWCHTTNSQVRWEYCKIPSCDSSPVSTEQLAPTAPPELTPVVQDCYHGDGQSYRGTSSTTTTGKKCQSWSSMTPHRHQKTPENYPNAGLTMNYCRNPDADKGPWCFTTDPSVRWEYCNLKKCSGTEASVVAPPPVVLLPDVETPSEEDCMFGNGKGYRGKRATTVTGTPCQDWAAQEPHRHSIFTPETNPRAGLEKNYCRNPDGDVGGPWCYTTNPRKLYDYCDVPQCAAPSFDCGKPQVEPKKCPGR
Procedure: as §1, §2, §3
Plasmin catalytic activity was determined using the chromogenic substrate, S-2366 [L-pyroglutamyl-L-prolyl-L-arginine-p-nitroaniline hydrochloride], which was obtained from DiaPharma Group. The substrate was made up in deionized water followed by dilution in HBSA prior to the assay in which the final concentration was 300 micromolar (about 2.5-times Km). Purified human plasmin was obtained from Enzyme Research Laboratories, Inc. The enzyme was diluted into HBSA prior to assay in which the final concentration was 1.0 nM.

C[C@H](NC(=O)[C@@H](CO)NS(=O)(=O)Cc1ccccc1)C(=O)NCc1ccc(C(=N)N)cn1 [AO]
Ki (Urokinase (Abbokinase)): 100 to 250 nM | IC50 (Human rt-PA (Activase)): > 2500 nM | IC50 (human plasmin): > 2500 nM

C[C@H](NC(=O)[C@@H](CO)NS(=O)(=O)Cc1ccccc1)C(=O)NCc1ccc(C(=N)N)s1 [AH]
Ki (Urokinase (Abbokinase)): < 100 nM | IC50 (Human rt-PA (Activase)): 250 to 2500 nM | IC50 (human plasmin): > 2500 nM

C[C@H](NC(=O)[C@@H](CO)NS(=O)(=O)c1ccc2ccccc2c1)C(=O)NCc1ccc(C(=N)N)cc1 [AI]
Ki (Urokinase (Abbokinase)): 100 to 250 nM | IC50 (Human rt-PA (Activase)): > 2500 nM | IC50 (human plasmin): > 2500 nM

C[C@H](NC(=O)[C@@H](CO)NS(C)(=O)=O)C(=O)NCc1ccc(C(=N)N)cc1 [AU]
Ki (Urokinase (Abbokinase)): 250 to 2500 nM | IC50 (Human rt-PA (Activase)): > 2500 nM | IC50 (human plasmin): > 2500 nM

C[C@H](NC(=O)[C@@H](CO)NS(=O)(=O)Cc1ccccc1)C(=O)NCc1ccc(C(=N)N)cc1 [AJ]
IC50 (Human rt-PA (Activase)): > 2500 nM | IC50 (human plasmin): > 2500 nM

CCCCS(=O)(=O)N[C@H](CO)C(=O)N[C@@H](C)C(=O)NCc1ccc(C(=N)N)cc1 [A]
Ki (Urokinase (Abbokinase)): < 100 nM | IC50 (Human rt-PA (Activase)): > 2500 nM | IC50 (human plasmin): > 2500 nM

CCCCS(=O)(=O)N[C@H](CO)C(=O)N1CCC1C(=O)NCc1ccc(C(=N)N)cc1 (stereo partly drawn) [Z]
Ki (Urokinase (Abbokinase)): < 100 nM | IC50 (Human rt-PA (Activase)): > 2500 nM | IC50 (human plasmin): > 2500 nM

N=C(N)Nc1ccc(CNC(=O)Cn2cccc(NS(=O)(=O)Cc3ccccc3)c2=O)cc1 [AR]
Ki (Urokinase (Abbokinase)): 250 to 2500 nM | IC50 (Human rt-PA (Activase)): > 2500 nM | IC50 (human plasmin): > 2500 nM

N=C(N)c1ccc(CNC(=O)[C@@H]2C=CCN2C(=O)[C@@H](CO)NS(=O)(=O)CCc2ccccc2)cc1 [F]
Ki (Urokinase (Abbokinase)): < 100 nM | IC50 (Human rt-PA (Activase)): > 2500 nM

CCCCS(=O)(=O)NC(CO)C(=O)N1CC2CC2C1C(=O)NCc1ccc(C(=N)N)cc1 (mixture of isomers) [AA]
Ki (Urokinase (Abbokinase)): < 100 nM | IC50 (Human rt-PA (Activase)): > 2500 nM | IC50 (human plasmin): > 2500 nM

C[C@H](NC(=O)[C@@H](CO)NS(=O)(=O)Cc1ccccc1)C(=O)NCc1ccc(NC(=N)N)s1 [AW]
Ki (Urokinase (Abbokinase)): 250 to 2500 nM | IC50 (Human rt-PA (Activase)): > 2500 nM | IC50 (human plasmin): > 2500 nM

CCCCS(=O)(=O)NC(CO)C(=O)N1CC=CC1C(=O)NCc1ccc(C(=N)N)cc1 (mixture of isomers) [O]
Ki (Urokinase (Abbokinase)): < 100 nM | IC50 (Human rt-PA (Activase)): > 2500 nM | IC50 (human plasmin): > 2500 nM

CCC[C@H](NC(=O)[C@@H](CO)NS(=O)(=O)Cc1ccccc1)C(=O)NCc1ccc(C(=N)N)cc1 [AS]
Ki (Urokinase (Abbokinase)): < 100 nM | IC50 (Human rt-PA (Activase)): > 2500 nM | IC50 (human plasmin): > 2500 nM

N=C(N)c1ccc(CNC(=O)[C@@H]2C3CC3CN2C(=O)[C@@H](CO)NS(=O)(=O)Cc2ccccc2)cc1 (stereo partly drawn) [T]
Ki (Urokinase (Abbokinase)): < 100 nM | IC50 (Human rt-PA (Activase)): > 2500 nM | IC50 (human plasmin): 250 to 2500 nM

CCCCS(=O)(=O)N[C@H](CO)C(=O)N[C@@H](C)C(=O)NCCCCNC(=N)N [B]
Ki (Urokinase (Abbokinase)): 250 to 2500 nM | IC50 (Human rt-PA (Activase)): > 2500 nM | IC50 (human plasmin): > 2500 nM

CC[C@H](NC(=O)[C@@H](CO)NS(=O)(=O)Cc1ccccc1)C(=O)NCc1ccc(C(=N)N)cc1 [AT]
Ki (Urokinase (Abbokinase)): < 100 nM | IC50 (Human rt-PA (Activase)): > 2500 nM | IC50 (human plasmin): > 2500 nM

N=C(N)c1ccc(CNC(=O)[C@@H]2CCCN2C(=O)[C@@H](CO)NS(=O)(=O)Cc2ccccc2)cc1 [J]
IC50 (Human rt-PA (Activase)): > 2500 nM | IC50 (human plasmin): 250 to 2500 nM

N=C(N)c1ccc(CNC(=O)[C@@H]2CCN2C(=O)[C@@H](CO)NS(=O)(=O)CCc2ccccc2)cc1 [S]
Ki (Urokinase (Abbokinase)): 100 to 250 nM | IC50 (Human rt-PA (Activase)): > 2500 nM | IC50 (human plasmin): > 2500 nM

CCCCS(=O)(=O)N[C@H](CO)C(=O)N[C@@H](C)C(=O)NCc1ccc(C(=N)N)s1 [L]
Ki (Urokinase (Abbokinase)): < 100 nM | IC50 (Human rt-PA (Activase)): > 2500 nM | IC50 (human plasmin): > 2500 nM

CCCCS(=O)(=O)N[C@H](CO)C(=O)N1CC2CC2C1C(=O)NCc1ccc(C(=N)N)cc1 (stereo partly drawn) [Q]
Ki (Urokinase (Abbokinase)): < 100 nM | IC50 (Human rt-PA (Activase)): > 2500 nM | IC50 (human plasmin): > 2500 nM

N=C(N)c1ccc(CNC(=O)[C@@H]2C=CCN2C(=O)[C@@H](CO)NS(=O)(=O)Cc2ccccc2)cc1 [K]
Ki (Urokinase (Abbokinase)): < 100 nM | IC50 (Human rt-PA (Activase)): > 2500 nM | IC50 (human plasmin): 250 to 2500 nM

C[C@@H](NC(=O)[C@@H](CO)NS(=O)(=O)c1cccc2ccccc12)C(=O)NCc1ccc(C(=N)N)cc1 [AP]
Ki (Urokinase (Abbokinase)): < 100 nM | IC50 (Human rt-PA (Activase)): > 2500 nM | IC50 (human plasmin): > 2500 nM

CCCCS(=O)(=O)NC(CO)C(=O)N1CCCC1C(=O)NCc1ccc(C(=N)N)cc1 (mixture of isomers) [N]
Ki (Urokinase (Abbokinase)): < 100 nM | IC50 (Human rt-PA (Activase)): > 2500 nM | IC50 (human plasmin): > 2500 nM

CCCCS(=O)(=O)NC(CO)C(=O)NC(C)C(=O)NCc1ccc(NC(=N)N)cc1 (stereo not drawn) [AG]
Ki (Urokinase (Abbokinase)): < 100 nM | IC50 (Human rt-PA (Activase)): > 2500 nM | IC50 (human plasmin): > 2500 nM

N=C(N)Nc1ccc(CNC(=O)[C@@H]2C=CCN2C(=O)[C@@H](CO)NS(=O)(=O)Cc2ccccc2)cc1 [AV]
Ki (Urokinase (Abbokinase)): < 100 nM | IC50 (Human rt-PA (Activase)): > 2500 nM | IC50 (human plasmin): > 2500 nM

N=C(N)c1ccc(CNC(=O)[C@@H]2CCN2C(=O)[C@@H](CO)NS(=O)(=O)Cc2ccccc2)cc1 [R]
Ki (Urokinase (Abbokinase)): < 100 nM | IC50 (Human rt-PA (Activase)): > 2500 nM | IC50 (human plasmin): > 2500 nM

C[C@H](NC(=O)[C@@H](CO)NS(=O)(=O)Cc1ccccc1)C(=O)NCc1ccc(NC(=N)NC(=O)OC(C)(C)C)cc1 [AM]
Ki (Urokinase (Abbokinase)): < 100 nM | IC50 (Human rt-PA (Activase)): > 2500 nM | IC50 (human plasmin): > 2500 nM

C[C@H](NC(=O)[C@@H](C)NS(=O)(=O)Cc1ccccc1)C(=O)NCc1ccc(C(=N)N)cc1 [AK]
Ki (Urokinase (Abbokinase)): < 100 nM | IC50 (Human rt-PA (Activase)): > 2500 nM | IC50 (human plasmin): > 2500 nM

N=C(N)c1ccc(CNC(=O)C2C=CCN2C(=O)C(CO)NS(=O)(=O)Cc2ccccc2)s1 (mixture of isomers) [U]
Ki (Urokinase (Abbokinase)): < 100 nM | IC50 (Human rt-PA (Activase)): 250 to 2500 nM | IC50 (human plasmin): 250 to 2500 nM

C[C@H](NC(=O)[C@@H](CO)NS(=O)(=O)Cc1ccccc1)C(=O)NCc1ccc(NC(=N)N)cc1 [AN]
Ki (Urokinase (Abbokinase)): < 100 nM | IC50 (Human rt-PA (Activase)): > 2500 nM | IC50 (human plasmin): > 2500 nM

C=CC[C@H](NC(=O)[C@@H](CO)NS(=O)(=O)Cc1ccccc1)C(=O)NCc1ccc(C(=N)N)cc1 [AL]
Ki (Urokinase (Abbokinase)): < 100 nM | IC50 (Human rt-PA (Activase)): > 2500 nM | IC50 (human plasmin): > 2500 nM

N=C(N)c1ccc(CNC(=O)C2C3CC3CN2C(=O)C(CO)NS(=O)(=O)Cc2ccccc2)cc1 (stereo not drawn) [AD]
Ki (Urokinase (Abbokinase)): < 100 nM | IC50 (Human rt-PA (Activase)): > 2500 nM | IC50 (human plasmin): 250 to 2500 nM

Reference: US6586405B2, “Non-covalent inhibitors of urokinase and blood vessel formation” (Corvas International, Inc., priority 2000, dated 2003)
